The structures appear in SMILES notation. Entries after “also recorded” stand apart in the source; their conditions may differ.

Test [1] concerns the target T1, PTPMEG (Homo sapiens, UniProt P29074).
T1 construct: Asp-Ser-6xHis (N); made in house; host or cells: E. coli BL21(DE3)
T1 sequence (P29074 655-911 limits assumed): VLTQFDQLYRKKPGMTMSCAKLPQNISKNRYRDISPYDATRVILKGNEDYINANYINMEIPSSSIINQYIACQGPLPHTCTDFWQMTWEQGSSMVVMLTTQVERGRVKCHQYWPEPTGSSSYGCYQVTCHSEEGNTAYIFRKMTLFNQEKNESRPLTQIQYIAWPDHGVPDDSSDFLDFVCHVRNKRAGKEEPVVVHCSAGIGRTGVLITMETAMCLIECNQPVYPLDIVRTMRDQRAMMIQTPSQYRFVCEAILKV
Kind of test: TR-FRET phosphatase activity assay, PTPMEG. The class given is biochemical. As for the experimental part:
Expression and Purification of PTPMEG The DNA sequence encoding the C-terminal 326 residues of PTPMEG (phosphatase domain) was subcloned into the pET-17b vector (Novagen) between the Ndel and Xhol restriction sites. An N-terminal tag consisting of Asp-Ser-6×His was incorporated at the beginning of the protein sequence. Protein expression was performed in BL21(DE3) cells at 37° C. with a 4 hour 0.5 mM IPTG induction. The cells were harvested by centrifugation and stored at −80° C. until needed for protein purification. Protein purification consisted of cell lysis by sonication, immobilized metal affinity chromatography (IMAC) on a Ni^2+-NTA column (Qiagen), followed by hydrophobic interaction chromatography (HIC) on a phenyl sepharose column (Amersham Pharmacia Biotech) and/or ion exchange chromatography (IEC) on a Q sepharose column (Amersham Pharmacia Biotech). The purified 38.3 kDa protein was buffer exchanged into 50 mM HEPES, pH 7.5 and stored at −80° C.
Phosphatase Buffer: 50 mm HEPES, pH 8; 1 mM DDT; 2 mM EDTA; 0.01% Brij solution; 10 mM MgCl2. […]
The plates are then placed in the plate reader, an Analyst HT. […] Fluorescence resonance energy transfer (FRET) from Eu-Ab to APC will only occur when they are in close proximity. […]

The next test concerns the target PTPB (Homo sapiens, UniProt P23467). Description: FRET phosphatase assay, PTPB. The class given is biochemical. As for the experimental part: (§1) For the enzyme activity assay, 2.5 μl of compound, 12.5 μl of enzyme, and 10 μl of substrate (separated by air gaps) are added to columns 3 through 24 by the Biomek FX in a single dispense. After the dispense, the tips are washed with DMSO and water for re-use between each quadrant. Once the assay plates are set up, they are incubated at 27° C. for 45 minutes. Then 20 μl of detection buffer is added to stop the reaction and to allow the Europium antibody (Eu-Ab) and streptavidin-APC to bind to the substrate.
(§2) The plates are then placed in the plate reader, an Analyst HT. Excitation light at 360 nm is used to excite the Europium antibody with an emission at 620 nm. Fluorescence resonance energy transfer (FRET) from Eu-Ab to APC will only occur when they are in close proximity. Therefore, when an APC emission is observed at 665 nm the enzyme has been inhibited from removing the phosphate group from the substrate. The FRET assay is time-resolved (TR), where there is a delay between excitation light and collection of emission signals. This reduces the amount of stray light created by short-lived fluorescing molecules. The Analyst HT measures APC and Europium emission signals and calculates the ratio between the two intensities. Typical intensities for the Europium is ˜2000 and APC is ˜600.
(§3) The following compounds were tested by FRET against the listed phosphatases, and the IC50 were obtained. […]

In another test the target is T2, T Cell (Homo sapiens, UniProt P17706).
T2 sequence (P17706 1-415): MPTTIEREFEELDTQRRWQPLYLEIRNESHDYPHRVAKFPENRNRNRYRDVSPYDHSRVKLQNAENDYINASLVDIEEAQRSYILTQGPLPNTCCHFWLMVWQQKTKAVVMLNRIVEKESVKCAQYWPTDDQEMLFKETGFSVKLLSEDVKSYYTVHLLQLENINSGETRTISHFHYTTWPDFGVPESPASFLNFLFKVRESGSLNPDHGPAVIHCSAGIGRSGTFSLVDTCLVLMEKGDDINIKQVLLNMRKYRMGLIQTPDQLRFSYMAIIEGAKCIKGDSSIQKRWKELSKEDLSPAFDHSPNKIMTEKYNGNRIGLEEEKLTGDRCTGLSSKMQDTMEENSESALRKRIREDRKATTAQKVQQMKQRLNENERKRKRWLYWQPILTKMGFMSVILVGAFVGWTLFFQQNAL
Kind of test: FRET phosphatase assay, T Cell. The class given is biochemical. As for the experimental part: as §1, §2, §3

The target of the next test is T3, CD45 (Homo sapiens, UniProt P08575).
T3 sequence (P08575 26-1306): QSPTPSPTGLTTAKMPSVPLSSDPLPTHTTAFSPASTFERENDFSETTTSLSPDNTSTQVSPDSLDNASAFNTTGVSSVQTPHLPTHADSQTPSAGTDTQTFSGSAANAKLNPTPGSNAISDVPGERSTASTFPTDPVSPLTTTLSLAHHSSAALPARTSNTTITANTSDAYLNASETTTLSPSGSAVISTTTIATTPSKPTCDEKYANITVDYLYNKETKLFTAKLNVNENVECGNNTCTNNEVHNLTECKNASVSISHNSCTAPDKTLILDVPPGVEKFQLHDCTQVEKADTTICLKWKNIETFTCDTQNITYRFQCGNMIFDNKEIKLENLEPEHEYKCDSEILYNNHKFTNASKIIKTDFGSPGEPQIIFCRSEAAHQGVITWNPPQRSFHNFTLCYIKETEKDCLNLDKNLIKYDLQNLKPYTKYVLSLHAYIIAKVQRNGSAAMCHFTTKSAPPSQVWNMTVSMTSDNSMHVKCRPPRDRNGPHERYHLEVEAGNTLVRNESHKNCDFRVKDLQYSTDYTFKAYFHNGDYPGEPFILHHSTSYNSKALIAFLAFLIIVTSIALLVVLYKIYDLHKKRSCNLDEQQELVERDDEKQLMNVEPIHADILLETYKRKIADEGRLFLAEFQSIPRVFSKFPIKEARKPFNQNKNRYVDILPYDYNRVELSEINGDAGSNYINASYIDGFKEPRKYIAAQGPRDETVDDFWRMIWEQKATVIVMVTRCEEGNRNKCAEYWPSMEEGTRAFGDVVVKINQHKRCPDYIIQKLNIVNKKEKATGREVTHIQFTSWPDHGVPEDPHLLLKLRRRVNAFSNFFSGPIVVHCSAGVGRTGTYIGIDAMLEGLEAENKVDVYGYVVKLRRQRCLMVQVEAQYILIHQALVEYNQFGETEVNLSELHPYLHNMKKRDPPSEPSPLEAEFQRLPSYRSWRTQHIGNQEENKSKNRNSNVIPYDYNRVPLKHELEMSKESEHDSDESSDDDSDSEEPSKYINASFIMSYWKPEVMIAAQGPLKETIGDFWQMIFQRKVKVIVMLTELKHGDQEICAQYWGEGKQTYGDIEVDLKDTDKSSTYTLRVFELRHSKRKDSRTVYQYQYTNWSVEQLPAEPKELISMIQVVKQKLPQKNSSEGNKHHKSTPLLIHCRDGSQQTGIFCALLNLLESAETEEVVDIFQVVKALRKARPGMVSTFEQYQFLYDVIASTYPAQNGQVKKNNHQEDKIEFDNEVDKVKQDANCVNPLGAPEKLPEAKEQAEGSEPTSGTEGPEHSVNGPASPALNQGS
Kind of test: FRET phosphatase assay, CD45. The class given is biochemical. The method, then:
as §1, §2, §3

The test system of the next test is mice. Description: Amphetamine-induced hyperactivity model (open field). To be noted: 5 mg/kg SC, 60 min recording period.
Test [2] deals with T4, PTPMEG (Homo sapiens, UniProt P29074).
T4 construct: expressed in transfected cells
T4 sequence (P29074 1-926): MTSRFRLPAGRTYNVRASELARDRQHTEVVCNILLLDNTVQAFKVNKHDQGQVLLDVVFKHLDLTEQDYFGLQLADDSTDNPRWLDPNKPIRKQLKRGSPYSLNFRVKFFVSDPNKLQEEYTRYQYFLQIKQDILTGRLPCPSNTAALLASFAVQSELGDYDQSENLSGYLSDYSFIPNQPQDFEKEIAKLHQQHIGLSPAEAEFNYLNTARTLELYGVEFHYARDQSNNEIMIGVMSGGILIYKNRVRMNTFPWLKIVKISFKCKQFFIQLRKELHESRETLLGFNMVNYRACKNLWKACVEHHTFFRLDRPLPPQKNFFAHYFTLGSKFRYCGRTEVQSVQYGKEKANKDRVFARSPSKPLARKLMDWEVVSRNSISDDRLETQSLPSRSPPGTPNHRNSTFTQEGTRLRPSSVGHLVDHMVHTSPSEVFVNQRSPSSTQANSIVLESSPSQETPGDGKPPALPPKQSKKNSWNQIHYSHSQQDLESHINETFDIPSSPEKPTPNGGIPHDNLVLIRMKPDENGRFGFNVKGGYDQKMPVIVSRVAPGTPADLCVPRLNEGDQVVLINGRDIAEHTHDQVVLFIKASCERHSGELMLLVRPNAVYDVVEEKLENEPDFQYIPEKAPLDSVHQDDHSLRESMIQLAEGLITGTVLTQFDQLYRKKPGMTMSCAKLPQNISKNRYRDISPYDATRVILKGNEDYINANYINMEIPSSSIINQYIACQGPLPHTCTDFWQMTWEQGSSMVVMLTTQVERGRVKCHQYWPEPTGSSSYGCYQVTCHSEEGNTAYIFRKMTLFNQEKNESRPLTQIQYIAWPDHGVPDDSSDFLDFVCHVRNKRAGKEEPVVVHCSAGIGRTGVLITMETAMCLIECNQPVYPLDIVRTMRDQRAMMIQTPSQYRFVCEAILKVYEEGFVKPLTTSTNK
Kind of test: Western blot of NR2B and Src phosphorylation in NR1/NR2B stable cell line transfected with active Src and PTPMEG. To be noted: 48 h post transfection. The format is cell-based. As for the experimental part: A stable cell line, expressing the NMDA receptor subunit NR1 together with NR2B was transiently transfected with constitutive active Src kinase and PTPMEG, wildtype and dominant negative CS mutant, respectively. Control experiments included dephostatin, a generic tyrosine phosphatase inhibitor. 48 h post transfection cells were lysed and subsequently analyzed by western blot. In presence of the active wildtype PTPMEG phosphatase, both the NR2B subunit as well as Src kinase were dephosphorylated, shown in FIG. 3. […] NR2B phosphorylation by Src kinase was detected by an NR2B phosphospecific antibody. Dephosphorylation of NR2B and Src kinase was reversed by addition of dephostatin, and unaffected in presence of the dominant negative form of PTPMEG (CS). (FIG. 5)
Background: In western blotting, separated proteins are transferred to a membrane and probed.

The target of test [3] is T4, PTPMEG. Description: Western blot of Src/fyn Y418 phosphorylation in NR1/NR2B stable cell line transfected with active Src or fyn and PTPMEG. The format is cell-based. As to conditions: 500 μM, 3 hours, 48 hrs post-transfection. From the text: PTPMEG Dephosphorylates Protein Kinases Src and fyn. A stable cell line expressing the NR1 and NR2B subunits of the NMDA receptor was transiently transfected with constitutive active Src Srcor constitutive active fyn (fyn Y530F, where the tyrosine at position 530 is substituted by a phenylalanine) and PTPMEG, from a full length PTPMEG (amino-terminal myc-tag, c-terminal HA tag) expression construct in the pRK5 vector, with a CMV-driven promoter.
48 hrs post-transfection the cells were stimulated with 500 μM sodium orthovanadate, a […] for 3 hours. Cells were lysed and analyzed by western blot using a Src/fyn specific phosphoantibody (from Biosource) that recognizes the residue Y418 critical for activity for both Src and fyn. In presence of PTPMEG (identified with a c-myc antibody from Upstate) there is a dephosphorylation of Src and fyn at position Y418. This dephosphorylation is reversed by sodium orthovanadate. A pan Src antibody that recognizes total Src and fyn is used as a loading control.

Chain of PTPB (P23467 1643-1997 limits assumed): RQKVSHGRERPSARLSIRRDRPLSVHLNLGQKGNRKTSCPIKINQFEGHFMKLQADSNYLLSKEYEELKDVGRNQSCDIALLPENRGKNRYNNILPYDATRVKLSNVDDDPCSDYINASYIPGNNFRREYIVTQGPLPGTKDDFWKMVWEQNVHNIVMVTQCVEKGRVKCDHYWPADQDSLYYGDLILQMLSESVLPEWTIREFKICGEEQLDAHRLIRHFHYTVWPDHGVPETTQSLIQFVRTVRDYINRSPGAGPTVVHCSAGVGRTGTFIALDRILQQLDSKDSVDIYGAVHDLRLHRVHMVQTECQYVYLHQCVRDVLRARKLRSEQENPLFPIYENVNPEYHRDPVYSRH

What is called IC50 is the point on the concentration scale where inhibition reaches its midpoint. Low readings indicate greater potency, high ones weaker potency. For `O=C(O)CN1C(=O)c2cccc3cccc1c23` [AGY- 0041763], the IC50 on PTPMEG [1] was 0.56 µM; against PTPB, > 500 µM; on T Cell it was > 500 µM; on CD45 it was > 500 µM.

On to `C[C@H](N)Cc1ccccc1` [d-amphetamine], for which the “Locomotion (total distance in the open field)” value in the test on mice is reported as “significantly increases”.

On to `CN(N=O)c1cc(O)ccc1O` [dephostatin], for which the “Dephosphorylation of NR2B by PTPMEG” value on PTPMEG [2] (NR2B phosphospecific antibody western blot) was “reversed”. For the same compound, on PTPMEG [2] (anti PY418 western blot), the “Dephosphorylation of Src kinase (position 418) by PTPMEG” value is on record as “reversed; also recorded: restores phosphorylation”.

As for `[Na+].[Na+].[Na+].[O]=[V]([O-])([O-])[O-]` [sodium orthovanadate], the “Dephosphorylation of Src and fyn at position Y418 by PTPMEG” value on PTPMEG [3] was “reversed”.

(Values after patent US20050266509A1, “Interaction of NMDA receptor with protein tyrosine phosphatase” (AGY Therapeutics, Inc., priority 2003, published 2005).)
